Here are results for 26 compounds from patent US20210070748A1, “INHIBITORS OF BRUTONS TYROSINE KINASE” (Pharmacyclics LLC, priority 2015, published 2021).

For the assay, the target named is T1, BTK-WT (Homo sapiens, UniProt Q06187).
T1 construct: purified from insect cells as a full-length construct containing an N-terminal 6X-His tag; His6 (N); made in house; host or cells: insect cells (baculovirus Sf21 in Method B)
T1 sequence (Q06187 whole entry): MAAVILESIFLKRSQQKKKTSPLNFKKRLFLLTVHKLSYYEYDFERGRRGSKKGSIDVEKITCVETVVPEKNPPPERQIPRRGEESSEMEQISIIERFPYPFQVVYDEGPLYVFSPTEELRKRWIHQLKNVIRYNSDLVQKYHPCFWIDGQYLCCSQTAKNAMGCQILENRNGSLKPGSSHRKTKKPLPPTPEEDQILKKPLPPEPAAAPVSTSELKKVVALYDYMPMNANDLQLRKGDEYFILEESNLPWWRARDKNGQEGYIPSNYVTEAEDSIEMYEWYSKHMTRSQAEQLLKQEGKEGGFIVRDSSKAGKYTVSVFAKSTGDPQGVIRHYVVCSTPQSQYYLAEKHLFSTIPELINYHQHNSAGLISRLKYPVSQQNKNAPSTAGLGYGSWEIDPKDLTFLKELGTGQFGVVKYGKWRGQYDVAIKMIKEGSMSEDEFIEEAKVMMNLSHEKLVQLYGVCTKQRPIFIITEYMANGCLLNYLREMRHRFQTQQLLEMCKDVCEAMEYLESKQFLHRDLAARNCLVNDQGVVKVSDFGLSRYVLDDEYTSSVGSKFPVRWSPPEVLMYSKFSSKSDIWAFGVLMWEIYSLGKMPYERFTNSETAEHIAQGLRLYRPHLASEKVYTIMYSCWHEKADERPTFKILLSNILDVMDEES
The assay can be described thus: Btk in vitro inhibitory activity (one of Method A TR-FRET, Method B electrophoretic mobility shift, Method C radiometric filter binding). In kind it is biochemical. Conditions: D-compounds panel data; read-out: IC50 BTK-WT. In general terms: In EMSA bound probe runs differently from free probe, usually more slowly.
For the compound `C[C@@H]1[C@H](NC(=O)c2ncc(C3CC3)cn2)CCCN1c1cnc(C(N)=O)c(Nc2cnn(C)c2)n1` [Example D-198, 5-[(2R,3R)-3-(5-cyclopropylpyrimidine-2-amido)-2-methylpiperidin-1-yl]-3-[(1-methyl-1H-pyrazol-4-yl)amino]pyrazine-2-carboxamide], the IC50 was not above 10 nM.
The result for `C[C@@H]1[C@H](NC(=O)c2ccc(C3CC3)cc2)CCCN1c1cnc(C(N)=O)c(Nc2cnn(C3CCN(C)CC3)c2)n1` [Example D-185, 5-[(2R,3R)-3-(4-cyclopropylbenzamido)-2-methylpiperidin-1-yl]-3-{[1-(1-methylpiperidin-4-yl)-1H-pyrazol-4-yl]amino}pyrazine-2-carboxamide] reads not above 10 nM; that for `C[C@@H]1[C@H](NC(=O)c2ccc(C(C)(O)C(F)(F)F)cc2)CCCN1c1cnc(C(N)=O)c(Nc2cnn(C)c2)n1` (single isomer, unassigned) [Example D-213], not above 10 nM; that for `C[C@@H]1[C@H](NC(=O)c2ccc(C3CC3)c(Cl)c2)CCCN1c1cnc(C(N)=O)c(Nc2ccc(N3CCN(C)CC3)cc2)n1` [Example D-17, 5-[(2R,3R)-3-(3-chloro-4-cyclopropylbenzamido)-2-methylpiperidin-1-yl]-3-{[4-(4-methylpiperazin-1-yl)phenyl]amino}pyrazine-2-carboxamide], not above 10 nM.
In the case of `C[C@@H]1[C@H](NC(=O)c2ccc(C3CC3)cc2F)CCCN1c1cnc(C(N)=O)c(Nc2ccc(N3CCN(C)C[C@@H]3C)cc2)n1` [Example D-12, 5-[(2R,3R)-3-(4-cyclopropyl-2-fluorobenzamido)-2-methylpiperidin-1-yl]-3-({4-[(2S)-2,4-dimethylpiperazin-1-yl]phenyl}amino)pyrazine-2-carboxamide] it was not above 10 nM; in that of `C[C@@H]1[C@H](NC(=O)c2cnc(C(C)(C)C)s2)CCCN1c1cnc(C(N)=O)c(Nc2cnn(C)c2)n1` [Example D-239, 5-[(2R,3R)-3-(2-tert-butyl-1,3-thiazole-5-amido)-2-methylpiperidin-1-yl]-3-[(1-methyl-1H-pyrazol-4-yl)amino]pyrazine-2-carboxamide], not above 10 nM.
Regarding `CC1(c2ccc(Nc3nc(N4CCC[C@@H](n5ccc6cc(C7CC7)ccc6c5=O)C4)cnc3C(N)=O)cc2)CCN(C2CCCC2)CC1` [Example D-177, 3-{[4-(1-cyclopentyl-4-methylpiperidin-4-yl)phenyl]amino}-5-[(3R)-3-(6-cyclopropyl-1-oxo-1,2-dihydroisoquinolin-2-yl)piperidin-1-yl]pyrazine-2-carboxamide], the IC50 is not above 10 nM.
The result for `C[C@@H]1[C@H](NC(=O)c2ccc(C3CC3)cc2)CCCN1c1cnc(C(N)=O)c(Nc2cnn(CCN(C)C)c2)n1` [Example D-187, 5-[(2R,3R)-3-(4-cyclopropylbenzamido)-2-methylpiperidin-1-yl]-3-({1-[2-(dimethylamino)ethyl]-1H-pyrazol-4-yl}amino)pyrazine-2-carboxamide] reads 10 to 100 nM; that for `C[C@@H]1[C@H](NC(=O)c2ccc(C3CC3)cc2F)CCCN1c1cnc(C(N)=O)c(Nc2ccc(N3CCN(C)CC3)nc2)n1` [Example D-13, 5-[(2R,3R)-3-(4-cyclopropyl-2-fluorobenzamido)-2-methylpiperidin-1-yl]-3-{[6-(4-methylpiperazin-1-yl)pyridin-3-yl]amino}pyrazine-2-carboxamide], not above 10 nM; that for `C[C@@H]1[C@H](NC(=O)c2ccc(S(C)(=O)=O)cc2)CCCN1c1cnc(C(N)=O)c(Nc2ccc(N3CCN(C)CC3)cc2)n1` [Example D-227, 5-[(2R,3R)-3-(4-methanesulfonylbenzamido)-2-methylpiperidin-1-yl]-3-{[4-(4-methylpiperazin-1-yl)phenyl]amino}pyrazine-2-carboxamide], not above 10 nM.
In the case of `Cc1cc(Nc2nc(N3C[C@H](NC(=O)c4ccc(C5CC5)cc4F)CC[C@@H]3C)cnc2C(N)=O)sn1` [Example D-181, 5-[(2S,5R)-5-(4-cyclopropyl-2-fluorobenzamido)-2-methylpiperidin-1-yl]-3-[(3-methyl-1,2-thiazol-5-yl)amino]pyrazine-2-carboxamide] it was not above 10 nM; in that of `Cc1cc(Nc2nc(N3CCC[C@@H](NC(=O)N4Cc5ccccc5C4=O)C3)cnc2C(N)=O)sn1` [Example D-15, N-[(3R)-1-{5-carbamoyl-6-[(3-methyl-1,2-thiazol-5-yl)amino]pyrazin-2-yl}piperidin-3-yl]-1-oxo-2,3-dihydro-1H-isoindole-2-carboxamide], not above 10 nM; in that of `CN1CCN([C@@H]2CCCN(c3cnc(C(N)=O)c(Nc4cnn(C)c4)n3)C2)C1=O` [Example D-209, 3-[(1-methyl-1H-pyrazol-4-yl)amino]-5-[(3R)-3-(3-methyl-2-oxoimidazolidin-1-yl)piperidin-1-yl]pyrazine-2-carboxamide], 10 to 100 nM.
In the case of `Cn1cc(Nc2nc(N3CCC[C@@H](n4ccc5cc(C6CC6)ccc5c4=O)C3)cnc2C(N)=O)cn1` [Example D-184, 5-[(3R)-3-(6-cyclopropyl-1-oxo-1,2-dihydroisoquinolin-2-yl)piperidin-1-yl]-3-[(1-methyl-1H-pyrazol-4-yl)amino]pyrazine-2-carboxamide] it was not above 10 nM.
Turning to `C[C@@H]1[C@H](NC(=O)c2ccc(C3CC3)cc2)CCCN1c1cnc(C(N)=O)c(Nc2cnn(C)c2)c1` [Example D-207, 5-[(2R,3R)-3-(4-cyclopropylbenzamido)-2-methylpiperidin-1-yl]-3-[(1-methyl-1H-pyrazol-4-yl)amino]pyridine-2-carboxamide], the IC50 is not above 10 nM.
The result for `C[C@@H]1[C@H](NC(=O)c2ccc3c(cnn3C)c2)CCCN1c1cnc(C(N)=O)c(Nc2ccc(N3CCN(C)CC3)cc2)n1` [Example D-234, N-[(2R,3R)-1-(5-carbamoyl-6-{[4-(4-methylpiperazin-1-yl)phenyl]amino}pyrazin-2-yl)-2-methylpiperidin-3-yl]-1-methyl-1H-indazole-5-carboxamide] reads not above 10 nM; that for `C[C@@H]1[C@H](NC(=O)c2ccc3scnc3c2)CCCN1c1cnc(C(N)=O)c(Nc2ccc(N3CCN(C)CC3)cc2)n1` [Example D-226, N-[(2R,3R)-1-(5-carbamoyl-6-{[4-(4-methylpiperazin-1-yl)phenyl]amino}pyrazin-2-yl)-2-methylpiperidin-3-yl]-1,3-benzothiazole-5-carboxamide], not above 10 nM.
For `CC(C)c1ccc(C(=O)N[C@@H]2CCCN(c3cnc(C(N)=O)c(Nc4cnn(C)c4)n3)[C@@H]2C)cc1` [Example D-197, 3-[(1-methyl-1H-pyrazol-4-yl)amino]-5-[(2R,3R)-2-methyl-3-[4-(propan-2-yl)benzamido]piperidin-1-yl]pyrazine-2-carboxamide], the half-inhibitory concentration (IC50) is not above 10 nM.
Turning to `C[C@@H]1[C@H](NC(=O)c2ccc(C3(O)CCCC3)cc2)CCCN1c1cnc(C(N)=O)c(Nc2cnn(C)c2)n1` [Example D-212, 5-[(2R,3R)-3-[4-(1-hydroxycyclopentyl)benzamido]-2-methylpiperidin-1-yl]-3-[(1-methyl-1H-pyrazol-4-yl)amino]pyrazine-2-carboxamide], the 50% inhibitory concentration (IC50) is not above 10 nM.
Take `Cn1cc(Nc2nc(N3CCC[C@@H](n4ccc5cc(C6CC6)ccc5c4=O)C3)nnc2C(N)=O)cn1` [Example D-206, 3-[(3R)-3-(6-cyclopropyl-1-oxo-1,2-dihydroisoquinolin-2-yl)piperidin-1-yl]-5-[(1-methyl-1H-pyrazol-4-yl)amino]-1,2,4-triazine-6-carboxamide]: the half-inhibitory concentration (IC50) is not above 10 nM.
As to `C[C@H]1CC[C@@H](NC(=O)c2ccc(C(C)(C)O)cc2)CN1c1cnc(C(N)=O)c(Nc2cnn(C)c2)n1` [Example D-236, 5-[(2S,5R)-5-[4-(2-hydroxypropan-2-yl)benzamido]-2-methylpiperidin-1-yl]-3-[(1-methyl-1H-pyrazol-4-yl)amino]pyrazine-2-carboxamide], the 50% inhibitory concentration (IC50) is not above 10 nM.
In the case of `C[C@@H]1[C@H](NC(=O)c2ccc(C(C)(C)C)cc2)CCCN1c1cnc(C(N)=O)c(Nc2ccc(N3CCN(C)CC3)cc2)n1` [Example D-14, 5-[(2R,3R)-3-(4-tert-butylbenzamido)-2-methylpiperidin-1-yl]-3-{[4-(4-methylpiperazin-1-yl)phenyl]amino}pyrazine-2-carboxamide] it was not above 10 nM; in that of `Cn1cc(Nc2nc(N3C4CCC(NC(=O)c5ccc(C6CC6)cc5)C3CC4)cnc2C(N)=O)cn1` (single isomer, unassigned) [Example D-200, 5-[2-(4-cyclopropylbenzamido)-8-azabicyclo[32.1]octan-8-yl]-3-[(1-methyl-1H-pyrazol-4-yl)amino]pyrazine-2-carboxamide], 100 to 1000 nM.
In the case of `C[C@@H]1[C@H](NC(=O)c2ccc(C3CC3)cn2)CCCN1c1cnc(C(N)=O)c(Nc2ccc(N3CCN(C)CC3)cc2)n1` [Example D-188, 5-[(2R,3R)-3-(5-cyclopropylpyridine-2-amido)-2-methylpiperidin-1-yl]-3-{[4-(4-methylpiperazin-1-yl)phenyl]amino}pyrazine-2-carboxamide], the IC50 was not above 10 nM.
The result for `Cn1cc(Nc2nc(N3C[C@@H](NC(=O)c4ccc(C5CC5)cc4)CC(F)(F)C3)cnc2C(N)=O)cn1` [Example D-189, 5-[(5S)-5-(4-cyclopropylbenzamido)-3,3-difluoropiperidin-1-yl]-3-[(1-methyl-1H-pyrazol-4-yl)amino]pyrazine-2-carboxamide] reads 100 to 1000 nM; that for `CN1CCN(c2ccc(Nc3cc(N4CCC[C@@H](n5ccc6cc(C7CC7)ccc6c5=O)C4)cnc3C(N)=O)cc2)CC1` [Example D-178, 5-[(3R)-3-(6-cyclopropyl-1-oxo-1,2-dihydroisoquinolin-2-yl)piperidin-1-yl]-3-{[4-(4-methylpiperazin-1-yl)phenyl]amino}pyridine-2-carboxamide], 10 to 100 nM.

By IC50 is commonly meant the point on the concentration scale where inhibition reaches its midpoint.
